From article PMC8201173, “Inhibition of Carbonic Anhydrase IX Promotes Apoptosis through Intracellular pH Level Alterations in Cervical Cancer Cells” (International Journal of Molecular Sciences, 2021)

How the values were obtained:
Assay type in all cases: cell-based
HEK-293 = experiment: WST-1 cytotoxicity assay, HEK-293; conditions: Homo sapiens
Description: (§1) We used cancer and normal cell lines purchased from ATCC (American Type Culture Collection) and ECACC (European Collection of Authenticated Cell Cultures) and stored in liquid nitrogen. HT-29 (ATCC: HTB-38, colon adenoma cancer), HeLa (ATCC: CCL-2, cervix adenoma cancer cell), MDA-MB-231 (ATCC: HTB-26, breast adenoma cancer cell), and HEK-293 (ATCC: CRL-1573, embryonic kidney epithelial cell) cell lines were incubated in DMEM-F12 (Sigma-Aldrich, Germany), including 10% Fetal Bovine Serum (FBS), 100 μg/mL streptomycin/100 IU/mL penicillin, at 37 °C in an incubator containing 5% CO2, 95% air in a humid atmosphere. PNT-1A (ECACC: 95012614, normal prostate cells) cell line was incubated in RPMI-1640 medium, including %10 FBS, 100 μg/mL streptomycin/100 IU/mL penicillin, at 37 °C in an incubator containing 5% CO2, 95% air in a humid atmosphere.
(§2) The cytotoxic effects of compound E were evaluated with WST kit (Roche, Basel, Switzerland) in accordance with manufacturer protocols. The cells were planted in 96 well plates (10^4 cells per well). After 24 h of incubation, compound E at doses of 0, 2.5, 5, 10, 25, 50, 100, and 200 μM was administrated on the cell lines for 24, 48, and 72 h, and 5-FU on the control cell line with the same doses. WST-1 reactive of 10 µL was added in all wells. Following 4 h incubation, the measurements were carried out in a plate reader (Spectramax M5, BioTek, VT, USA) at wavelengths of 450 and 630 nm. Consequently, graphs were created, and the IC50 values of compound E and 5-fluorouracil were calculated. Selectivity index (SI) can be defined as the ratio of the toxic concentration of a sample against its effective compound concentration.

HT-29 = experiment: WST-1 cytotoxicity assay, HT-29; conditions: Homo sapiens
Description: (§3) We used cancer and normal cell lines purchased from ATCC (American Type Culture Collection) and ECACC (European Collection of Authenticated Cell Cultures) and stored in liquid nitrogen.
(§4) The cells were planted in 96 well plates (10^4 cells per well). […] WST-1 reactive of 10 µL was added in all wells. Following 4 h incubation, the measurements were carried out in a plate reader (Spectramax M5, BioTek, VT, USA) at wavelengths of 450 and 630 nm.

MDA-MB-231 = experiment: WST-1 cytotoxicity assay, MDA-MB-231; conditions: Homo sapiens
Description: as §3, §4

PNT1-A = experiment: WST-1 cytotoxicity assay, PNT1-A; conditions: Homo sapiens, PNT1A
Description: as §1, §2

HeLa cells = experiment: WST-1 cytotoxicity assay, HeLa; conditions: Homo sapiens
Description: as §3, §4

O=c1[nH]cc(F)c(=O)[nH]1 [5-FU, 5-Fluorouracil, reference compound]
IC50 (HEK-293; HEK293, HEK-293, 24 h): 44.6 ± 7.2 µM | IC50 (HEK-293; HEK293, HEK-293, 48 h): 19.8 ± 2.3 µM | IC50 (HEK-293; HEK293, HEK-293, 72 h): 14.5 ± 3.2 µM | IC50 (HT-29; HT-29, 24 h): 47.3 ± 1.2 µM | IC50 (HT-29; HT-29, 48 h): 23.4 ± 2.1 µM | IC50 (HT-29; HT-29, 72 h): 19.3 ± 1.2 µM | IC50 (MDA-MB-231; MDA-MB-231, 24 h): 42.6 ± 2.56 µM | IC50 (MDA-MB-231; MDA-MB-231, 48 h): 37.9 ± 12.3 µM | IC50 (MDA-MB-231; MDA-MB-231, 72 h): 21 ± 4.3 µM | IC50 (PNT1-A; 24 h): 23.1 ± 4.55 µM | IC50 (PNT1-A; 48 h): 21.2 ± 2.2 µM | IC50 (PNT1-A; 72 h): 17.5 ± 7.6 µM | IC50 (HeLa cells; 24 h): 37.8 ± 4.3 µM | IC50 (HeLa cells; 48 h): 31.2 ± 2.3 µM | IC50 (HeLa cells; 72 h): 14.7 ± 0.6 µM
